# Test results published in paper PMC7150766 (Viruses, 2020).
# Tests used:
# [1] = system: splenocytes from CVB4-infected A/J mice; test: Proliferative response of splenocytes from CVB4-infected mice; assay type: cell-based; settings: peptide 2 days, then 3[H] thymidine 16 h, p ≤ 0.01 for VP1 721–740, Figure 6a
# [2] = system: LNCs and splenocytes from immunized mice; test: Proliferative response, whole cells from VP1 peptide-immunized mice; assay type: cell-based, A/J mice
sequence,measurement,setting,value
"VNTFVHESLADVQA [RNase 43–56, bovine ribonuclease (RNase) 43–56, irrelevant control peptide]",Proliferative response (in words),[1],the cells did not respond to control
same,Proliferative response (in words),[2],the cells did not react to control
